Measurements: patent publication US8293231B2, “Methods and compositions for treating ischemia” (Blue Blood Biotech Corp., priority 2005, dated 2012)
Entries after “also recorded” stand apart in the source; their conditions may differ.

Key:
[1] = tested on: human umbilical vein endothelial cells (HUVECs); experiment: Cell proliferation assay (BrdU incorporation); type: cell-based
Procedure: (§1) To evaluate the effect of TMD proteins on DNA synthesis in human umbilical vein endothelial cells (HUVECs), we performed a 5-bromo-2′-deoxyuridine (BrdU) incorporation assay with a commercial quantification kit (Roche Diagnostic GmbH) and manufacturer's protocol. Mitogenic effects induced by TMD proteins were also determined in the presence of polyclonal rabbit anti-TMD23 antibody (prepared by GlycoNex, Inc., Taiwan) that was purified by protein G-Sepharose column (Amersham Pharmacia Biotech AB).
as §1, with “(HUVECs),” for “(HUVECs), we performed”, “assay were performed” for “assay”

[2] = tested on: Matrigel plugs in FVB mice; experiment: Murine angiogenesis assay (Matrigel plug); type: in vivo
HUVECs = experiment: In vitro Matrigel angiogenesis assay (tube formation); type: cell-based, human
Procedure: (§2) Growth-factor-reduced Matrigel (BD Biosciences) was thawed at 4° C. A total of 200 μL Matrigel was added to wells of a 48-well plate and polymerized 30 min at 37° C. Two hundred μL cell suspension containing various concentrations of VEGF, TMD23, or TMD23 in the presence of polyclonal rabbit anti-TMD23 antibody (10 μg/mL) or various signaling pathway inhibitors were plated onto Matrigel-coated wells at a density of 2.4×10^4 cells/well in M199 containing 10% FBS for 24 h at 37° C. in a 5% CO2 humidified atmosphere. Each concentration was tested in triplicate in the same plate, with wells photographed using a Leica camera (40× magnification). Tube length was quantified by measuring tubes in five randomly chosen fields from each well using MetaMorph software. Experiments were repeated at least three times.
as §2, with “5° k” for “5%”

[3] = Thrombomodulin activity assay (cofactor activity for thrombin-dependent protein C activation); type: biochemical
Procedure: (§3) Cofactor activity of TMD2 and TMD23 for thrombin-dependent protein C activation was measured as described previously. Huang H C., et al Thrombomodulin-mediated cell adhesion: Involvement of its lectin-like domain. J Biol. Chem. 2003; 278:46750-46759.
(§4) Cofactor activity of TMD2 and TMD23 for thrombin-dependent protein C activation was measured as described previously. Huang H C., et al Thrombomodulin-mediated cell adhesion: Involvement of its lectin-like domain. J Biol. Chem. 2003; 278: 46750-46759.

[4] = molecular target: thrombin-dependent protein C activation (Homo sapiens, UniProt P00734); experiment: as above; type: biochemical; details: on an equal molar basis
Procedure: as §3, §4

rat cornea = experiment: Rat corneal angiogenesis assay; type: in vivo, Sprague Dawley rats
Procedure: (§5) The rat corneal assay was performed as described elsewhere. See eg., Kenyon B M., et al A model of angiogenesis in the mouse cornea. Invest Opthalmol Vis Sci. 1996; 37:1625-1632. Uniformly sized pellets of Hydron (polyhydroxyethylmethacrylate [poly HEMA]) (Sigma-Aldrich) containing either TMD23 or basic fibroblast growth factor (bFGF) and sucralfate (Sigma-Aldrich) were implanted into the rat corneal stroma adjacent to the temporal limbus. Briefly, sterile-saline suspensions containing 5-40 μg TMD23 or bFGF plus 10 mg sucralfate were made and speed vacuumed for 5 min; 12% Hydron in ethanol was added as described. The suspension was deposited onto an autoclaved, sterilized, 15-mm×15-mm nylon mesh. […] The eyes of Sprague Dawley rats (250-300 g) were topically anesthetized and a single pellet was inserted into a surgically created pocket in the corneal stroma. Corneas were examined daily with a dissecting microscope for up to 24 days for capillary growth. Maximal vessel length, clock h, and vascular areas of corneas of all rats were measured with a slit-lamp stereomicroscope.
as §5, with “elsewhere.” for “elsewhere. See eg., Kenyon B M., et al A model of angiogenesis in the mouse cornea. Invest Opthalmol Vis Sci. 1996; 37:1625-1632.”, “clock hour,” for “clock h,”

[5] = tested on: Matrigel plugs in FVB mice; experiment: Murine angiogenesis assay (Matrigel plug); type: in vivo; remark: listed apart in the source
Procedure: To assess angiogenic effects in vivo, growth-factor-reduced liquid Matrigel (0.5 mL) containing heparin (60 U/mL) and various concentrations of TMD23, bFGF or VEGF was subcutaneously injected into FVB mice near the abdominal midline. Matrigel with PBS plus heparin served as the negative control, with bFGF and VEGF plus heparin as the positive control. Four days after injection, mice were sacrificed and Matrigel plugs were surgically removed. For macroscopic analysis of angiogenesis, hemoglobin content in Matrigel was measured using Drabkin reagent 525 (Sigma-Aldrich). For histological analysis, rat anti-mouse CD31 (PECAM-1, platelet endothelial cell adhesion molecule-1) antibody (Pharmingen) was used. The same specimens were used for hematoxylin and eosin (H&E) staining.

What does the source list for “TMD23: Recombinant human thrombomodulin fragment, amino acids Ala242-Ser515 of SEQ ID NO: 2: six EGF-like structures (D2) plus Ser/Thr-rich domain D3”?
Stimulation of HUVEC proliferation ([1]; 4.5 nM (150 ng/mL)): roughly two-fold; DNA synthesis in HUVECs ([1]; BrdU incorporation, FIG. 2A): stimulated DNA synthesis; Mitogenic activity / stimulation of HUVEC proliferation compared with TMD2 ([1]; FIG. 2A): higher mitogenic activity than TMD2; also recorded: more effective than TMD2; Appearance of Matrigel plugs, without heparin [2]: pale; HUVEC tube formation on Matrigel (HUVECs; 24 h, VEGF 10 ng/mL, TMD23 5 to 250 ng/mL): formed elongated capillary-like structures, with complete networks; Tubule length per well (HUVECs; FIG. 5G): stimulated tube formation in dose-dependent manner; Cofactor activity for thrombin-dependent protein C activation [3]: 2,650 pmol of APC formed/min/mg TMD23; Cofactor activity higher than that of TMD2 [4]: 25%; Day of maximal response (rat cornea; 90-ng dose): 10 days; Maximal response compared with bFGF (rat cornea; 90-ng dose, day 10): slightly greater than the response to 90 ng bFGF; Corneal neovascularization (rat cornea; implants in rat cornea): induced dose-dependent and time-dependent corneal neovascularization; Day of complete abrogation of angiogenic response (rat cornea; response regressed gradually after day 10): ≤ 24 days; Induction of in vivo angiogenesis compared with TMD2 ([5]; Matrigel plug assay): more effective than TMD2; Histology of Matrigel plugs (H&E, anti-mouse CD31) ([5]; TMD23 and heparin): Capillary-like structures were found; Vascularization of Matrigel plugs ([5]; all TMD23 concentrations, plus heparin): Intense vascularization; Appearance of Matrigel plugs, with heparin ([5]; day 4, plus heparin (30 U), TMD23 10, 100, or 1,000 ng, bFGF 250 ng, VEGF 50 ng): bright red; Magnitude of angiogenic reaction with heparin versus without ([5]; gels supplemented with both angiogenic factor and heparin): considerably greater; Hemoglobin content of recovered Matrigel plugs ([5]; plus heparin, compared with controls): significantly increased
